Counter-ions that a name gives are not always drawn.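 Method: 48-hour compound exposure of cells in 96-well plates, five concentrations, linear interpolation of endpoints. The concentration for 50% growth inhibition is given as GI50.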 The source made the active and inactive calls. No stated cut-off is given here; in the data, active = GI50 up to about 1.1 µM and inactive = higher.
What was measured:
Test in all cases: NCI-60 cell line screen, 48 h
[1] = tested on: MDA-MB-231
[2] = tested on: SF-539
[3] = tested on: PC-3
[4] = tested on: U-251
[5] = tested on: MDA-MB-435
[6] = tested on: NCI-H460
[7] = tested on: BT-549
[8] = tested on: HOP-92
[9] = tested on: LOX IMVI
[10] = tested on: TK-10
[11] = tested on: HCT-15
[12] = tested on: SW-620
[13] = tested on: NCI-H522
[14] = tested on: SNB-19
[15] = tested on: MCF7
[16] = tested on: MOLT-4
[17] = tested on: HOP-62
[18] = tested on: SK-MEL-2
[19] = tested on: SN12C
[20] = tested on: M19-MEL

SMILES	GI50 [1]	GI50 [2]	GI50 [3]	GI50 [4]	GI50 [5]	GI50 [6]	GI50 [7]	GI50 [8]	GI50 [9]	GI50 [10]	GI50 [11]	GI50 [12]	GI50 [13]	GI50 [14]	GI50 [15]	GI50 [16]	GI50 [17]	GI50 [18]	GI50 [19]	GI50 [20]
Oc1cccc2ccc(SSc3ccc4cccc(O)c4n3)nc12	16.7 µM (inactive)	19.8 µM (inactive)	16.3 µM (inactive)	16.4 µM (inactive)	19 µM (inactive)	19.3 µM (inactive)	21.1 µM (inactive)	23 µM (inactive)	18.2 µM (inactive)	20.1 µM (inactive)	22.3 µM	25.4 µM (inactive)	15.8 µM (inactive)	> 100 µM (inactive)	5.89 µM (inactive)	9.59 µM (inactive)	17.7 µM (inactive)	19.1 µM (inactive)	17.9 µM (inactive)	
Nc1nc(Cl)cc(NCC2(CO)CCC(CCc3ccccc3)C2)n1 (stereo not given)	16.6 µM (inactive)	17.9 µM (inactive)	19.3 µM (inactive)	15 µM (inactive)	14.3 µM (inactive)	12 µM (inactive)	14 µM (inactive)	15.5 µM (inactive)	7.89 µM (inactive)	18 µM (inactive)	16.3 µM	2.02 µM (inactive)	11.4 µM (inactive)	15.9 µM (inactive)	11.7 µM (inactive)	2.7 µM (inactive)	1.05 µM (active)	18.5 µM (inactive)	16 µM (inactive)	
Cc1cc(NS(=O)(=O)c2ccc(Nc3c4ccccc4nc4ccc(C(=O)Nc5ccc(S(=O)(=O)N=C(N)N)cc5)cc34)cc2)no1	> 100 µM (inactive)	> 100 µM (inactive)	> 100 µM (inactive)	> 100 µM (inactive)	> 100 µM (inactive)	> 100 µM (inactive)	> 100 µM (inactive)	> 100 µM (inactive)	> 100 µM (inactive)	> 100 µM (inactive)	> 100 µM	> 100 µM (inactive)	> 100 µM (inactive)	> 100 µM (inactive)	> 100 µM (inactive)	> 100 µM (inactive)	> 100 µM (inactive)	> 100 µM (inactive)	> 100 µM (inactive)	
CC[C@]12CN3CCc4c([nH]c5ccccc45)[C@@](C(=O)OC)(c4cc5c(cc4OC)N(C)[C@H]4[C@@](O)(C(=O)OC)[C@H](OC(C)=O)[C@]6(CC)C=CCN7CC[C@]54[C@@H]76)CC(C3)[C@H]1O2 (stereo not given in full) [VINLEUROSINE SULFATE]	0.291 µM (active)	0.039 µM (active)	0.134 µM (active)	< 0.0179 µM (active)	< 0.01 µM (active)	< 0.01 µM (active)	10.2 µM (inactive)	8.13 µM (inactive)	< 0.01 µM (active)	> 47.5 µM (inactive)	0.449 µM	< 0.0208 µM (active)	< 0.01 µM (active)	0.0553 µM (active)	< 0.014 µM (active)	< 0.0156 µM (active)	0.1 µM (active)	0.0968 µM (active)	< 0.01 µM (active)	
O=C(C=P(c1ccccc1)(c1ccccc1)c1ccccc1)CC(=S)CC(=O)C=P(c1ccccc1)(c1ccccc1)c1ccccc1		4.09 µM (inactive)		2.29 µM (inactive)		4.36 µM (inactive)		1.65 µM (inactive)	3.53 µM (inactive)	7.96 µM (inactive)	15.3 µM	4.29 µM (inactive)	2.74 µM (inactive)	4.33 µM (inactive)			8.04 µM (inactive)		3.39 µM (inactive)	4.57 µM (inactive)
COC1(OC)c2occc2C(=N)c2ccc(=O)oc21	> 100 µM (inactive)	41.9 µM (inactive)	> 100 µM (inactive)	> 100 µM (inactive)	> 100 µM (inactive)	> 100 µM (inactive)	> 100 µM (inactive)	> 100 µM (inactive)	> 100 µM (inactive)	> 100 µM (inactive)	> 100 µM	> 100 µM (inactive)	> 100 µM (inactive)	> 100 µM (inactive)	81.8 µM (inactive)	> 100 µM (inactive)	> 100 µM (inactive)	> 100 µM (inactive)	> 100 µM (inactive)	
O=C(/C=C\Nc1ccccc1O)C(Cl)(Cl)Cl	> 100 µM (inactive)	56.2 µM (inactive)	37.7 µM (inactive)	26.9 µM (inactive)	20.6 µM (inactive)	53.7 µM (inactive)	52.2 µM (inactive)	70.5 µM (inactive)	31.8 µM (inactive)	78.5 µM (inactive)	38.5 µM	> 100 µM (inactive)	22.6 µM (inactive)	76.2 µM (inactive)	20.8 µM (inactive)	27.7 µM (inactive)	24.1 µM (inactive)	43.2 µM (inactive)	72.8 µM (inactive)	
CC[C@H]1[C@@H](C)C=C[C@@H](C)N1S(=O)(=O)c1ccc(C)cc1		> 100 µM (inactive)		> 100 µM (inactive)		> 10 µM (inactive)			> 100 µM (inactive)		61.2 µM	> 100 µM (inactive)	30.3 µM (inactive)	0.693 µM (active)		79.3 µM (inactive)	> 100 µM (inactive)	19.8 µM (inactive)	92.7 µM (inactive)	> 100 µM (inactive)

From ChEMBL document CHEMBL1201862, “PubChem BioAssay data set” (2004)
